The text below walks through data of US8592468B2, “Bacterial thioredoxin reductase inhibitors and methods for use thereof” (Thioredoxin Systems AB, priority 2006, dated 2013).

In brackets after ≈: the same amount, converted by molar mass. Where two headings read alike, the source gives them in different places.

Experiment [1] concerns wild type DHB4 E. coli. The experiment in a line: Bacterial inhibition by ebselen derivates, MIC. The conditions noted are these: Escherichia coli, DHB4E.COLI, 4 h, read-out: MIC for wild type DHB4 E. coli.
Method: E. coli DHB4 strains wt, gshA^−, gor^−, oxyR^− were cultured overnight in LB medium. […] OD 600 was detected and DMSO was used as the control. […] The data are the means of two experiments.
Experiment [2] concerns Staphylococcus aureus. The conditions noted are these: cited from earlier work.
Experiment [3] deals with mammalian thioredoxin reductases. The experiment in a line: Inhibition of mammalian thioredoxin reductases. It counts as biochemical.
For experiment [4], the system named is Mammalian TrxR. The conditions noted are these: from reference; cited from earlier work.
Experiment [5] addresses E. coli Trx-(SH)2 (Escherichia coli (strain K12), UniProt P0AA25). The conditions noted are these: fluorescence spectroscopy; cited from earlier work.
For experiment [6], the system named is E. coli DHB4 strains. In words: Sensitivity of growth of E. coli DHB4 strains to ebselen (A600). It counts as cell-based. As to the method: Bacterial cells were grown in 5 mL cultures at 37° C., 120 rpm in 15 mL closed tubes containing Lutria-Bertani (LB) or M9 minimal media supplemented with 50 μg/ml Leu, Ile, 1× basal medium Eagle's vitamin solution (Invitrogen) and 2 μg/mL nicotinic acid. For the experiments regarding sensitivity of growth to ebselen, cells were initially grown overnight at 37° C. at the respective medium. The next day, equal cell numbers (as determined by A600) with dilutions of at least 1:50 were used to start 5 mL cultures containing different concentrations of Ebselen. Ebselen stock solutions were freshly prepared in DMSO. Extra DMSO was added to the cultures so that the total volumes of DMSO were the same per culture even at different final concentrations of Ebselen. Growth inhibition assays were carried out also on M9 minimal plates. The plates were covered with minimal top agar that contained equal cell number for all the strains examined. These were derived from overnight liquid cultures in M9 medium.
Sensitivity to ebselen was measured by inhibition of growth as determined by scattering (absorbance) at 600 nm at different times after inoculation.

Consider `O=c1c2ccccc2[se]n1-c1ccccc1` [EbSe 6, 2-phenyl-1,2-benzisoselenazol-3(2H)-one], for which the MIC in experiment [1] was 40 µM (≈ 11 µg/mL). Further, in experiment [2] (S. aureus strains), the “mode of antibacterial action” value is on record as “bacteriocidal”. Further, the concentration inhibiting growth in experiment [2] (Staphylococcus aureus 209P) is 0.20 µg/mL. In experiment [2], the “MIC for 90% of S. aureus strains” value is 1.56 μg per ml and the “sensitivity of S. aureus relative to E. coli” value is reported as 100 fold. Besides, the concentration inhibiting growth in experiment [2] (methicillin resistant Staphylococcus aureus) is 0.20 μg per ml. In addition, the “inhibitory activity of mammalian thioredoxin reductases” value in experiment [3] was “no inhibitory activity”. In experiment [4], the Km was 2.5 µM, the turnover number (kcat) was 9.8 s⁻¹ and the kcat/KM is 3.92e+06 M⁻¹ s⁻¹. Also, the “second-order rate constant of reaction with reduced E. coli Trx” value in experiment [5] is 2e+07 M⁻¹ s⁻¹. For the same compound, in experiment [6], the “wild type bacteria compared with gor^− and gshA^− strains” value is “more resistant”. Also, in experiment [6] (LB medium), the “sensitivity of gshA^−trxA^− strain” value is reported as “more sensitive” and the “sensitivity of strain trxA^−C^− compared with wild type” value is “similar, if not less”. Moreover, the “growth of gor^− and gshA^− strains in presence of ebselen” value in experiment [6] (minimal media (M9)) was “hardly grew”.
